The record followed here is patent US7582610B2, “Melanocortin receptor templates, peptides and use thereof” (priority 2003, dated 2009).

Where a SMILES comes first, the peptide text is derived from it. Bridges are numbered along the chain shown (N, C = ends). [ ]: non-standard residue; d: D form. Nle = CCCC[C@H](N)C(=O)O; Dap = NC[C@H](N)C(=O)O

Broadly, the EC50 is the concentration at which the effect is half-maximal.

For assay [1], the target named is T1, mMC3R (Mus musculus, UniProt P33033). Nature of the assay: Receptor binding study, competitive displacement of 125I-NDP-MSH at mMC3R. Further details: expressed in transfected cells. The following applies: peptide at 10 μM. For orientation: Loss of bound radioactivity is the signal in a displacement assay; it reports binding, not function.
T1 sequence (P33033 whole entry): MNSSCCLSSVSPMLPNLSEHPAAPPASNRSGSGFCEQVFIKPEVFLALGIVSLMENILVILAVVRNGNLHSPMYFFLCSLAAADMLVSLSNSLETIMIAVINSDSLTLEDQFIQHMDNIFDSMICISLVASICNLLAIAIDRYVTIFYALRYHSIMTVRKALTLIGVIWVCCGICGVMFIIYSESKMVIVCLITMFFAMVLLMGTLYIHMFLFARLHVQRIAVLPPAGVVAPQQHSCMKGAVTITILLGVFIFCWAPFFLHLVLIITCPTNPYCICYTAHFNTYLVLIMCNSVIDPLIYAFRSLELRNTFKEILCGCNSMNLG
Assay [2] addresses T2, mMC4R (Mus musculus, UniProt P56450). Kind of assay: Functional bioassay, CRE/β-galactosidase reporter in HEK-293 cells stably expressing mMC4R.
Procedure: (§1) 5,000 to 15,000 post transfection cells were plated into 96 well Primera plates (Falcon) and incubated overnight. […] The assay media was aspirated and 50 μL of lysis buffer (250 mM Tris-HCl pH=8.0 and 0.1% Triton X-100) was added. The plates were stored at −80° overnight.
(§2) The plates containing the cell lysates were thawed the following day. Aliquots of 10 μL were taken from each well and transferred to another 96-well plate for relative protein determination. To the cell lysate plates, 40 μL phosphate-buffered saline with 0.5% BSA was added to each well. Subsequently, 150 μL substrate buffer (60 mM sodium phosphate, 1 mM MgCl2, 10 mM KCl, 5 mM β-mercaptoethanol, 200 mg/100 mL ONPG) was added to each well and the plates were incubated at 37°.
(§3) The sample absorbance, OD405, was measured using a 96 well plate reader (Molecular Devices). The relative protein was determined by adding 200 μL 1:5 dilution Bio Rad G250 protein dye:water to the 10 μL cell lysate sample taken previously, and the OD595 was measured on a 96 well plate reader (Molecular Devices). Data points were normalized both to the relative protein content and non-receptor dependent forskolin stimulation.
(§4) For data analysis, EC50 and pA2 values represent the mean of duplicate experiments performed in triplet, quadruplet or more independent experiments.
Assay [3] has as its target T1, mMC3R. Kind of assay: Functional bioassay, CRE/β-galactosidase reporter in HEK-293 cells stably expressing mMC3R. The following applies: for pharmacology in words at mMC3R: slight agonist = some stimulatory response at 100 μM, not enough to determine an EC50.
Procedure: as §1, §2, §3, §4
For assay [4], the target named is T2, mMC4R. Kind of assay: Receptor binding study, competitive displacement of 125I-NDP-MSH at mMC4R. Set-up: expressed in transfected cells. The following applies: peptide at 10 μM.
Another assay concerns the target mMC1R (Mus musculus, UniProt Q01727). Nature of the assay: Functional bioassay, CRE/β-galactosidase reporter in HEK-293 cells stably expressing mMC1R. The following applies: for pharmacology in words at mMC1R: slight agonist = some stimulatory response at 100 μM, not enough to determine an EC50.
For the next assay, the target named is mMC5R (Mus musculus, UniProt P41149). Kind of assay: Functional bioassay, CRE/β-galactosidase reporter in HEK-293 cells stably expressing mMC5R. The following applies: for pharmacology in words at mMC5R: slight agonist = some stimulatory response at 100 μM, not enough to determine an EC50.
Chain of mMC5R (P41149 whole entry): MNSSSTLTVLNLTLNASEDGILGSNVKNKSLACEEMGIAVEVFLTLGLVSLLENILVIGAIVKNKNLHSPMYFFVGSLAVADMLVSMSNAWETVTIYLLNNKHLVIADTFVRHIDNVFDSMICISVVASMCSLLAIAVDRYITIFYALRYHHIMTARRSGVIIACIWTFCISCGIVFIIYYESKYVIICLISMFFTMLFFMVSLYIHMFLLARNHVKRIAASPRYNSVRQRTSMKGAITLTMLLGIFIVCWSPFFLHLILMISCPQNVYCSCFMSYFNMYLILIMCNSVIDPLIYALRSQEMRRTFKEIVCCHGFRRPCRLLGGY

Chain of mMC1R (Q01727 whole entry): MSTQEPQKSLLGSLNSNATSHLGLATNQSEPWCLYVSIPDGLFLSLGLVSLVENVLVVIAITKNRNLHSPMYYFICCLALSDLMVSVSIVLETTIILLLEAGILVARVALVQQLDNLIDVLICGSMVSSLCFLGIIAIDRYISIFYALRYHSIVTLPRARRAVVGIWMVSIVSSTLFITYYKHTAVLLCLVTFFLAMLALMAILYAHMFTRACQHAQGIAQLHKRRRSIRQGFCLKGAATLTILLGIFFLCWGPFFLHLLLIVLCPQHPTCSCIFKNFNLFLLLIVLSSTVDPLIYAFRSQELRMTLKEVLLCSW
T2 sequence (P56450 whole entry): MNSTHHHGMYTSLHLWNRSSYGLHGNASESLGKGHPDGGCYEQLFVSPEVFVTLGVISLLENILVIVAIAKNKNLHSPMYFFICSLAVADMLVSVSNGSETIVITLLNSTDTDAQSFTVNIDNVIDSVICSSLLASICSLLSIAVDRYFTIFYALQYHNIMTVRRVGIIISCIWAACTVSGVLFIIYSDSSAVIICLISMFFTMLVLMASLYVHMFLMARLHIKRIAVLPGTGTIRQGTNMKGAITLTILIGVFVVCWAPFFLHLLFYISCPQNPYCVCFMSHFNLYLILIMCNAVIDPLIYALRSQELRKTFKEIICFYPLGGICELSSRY
Procedure for mMC1R: as §1, §2, §3, §4
Procedure for mMC5R: as §1, §2, §3, §4

As to `C[C@@H]1NC(=O)[C@H](CC(N)=O)NC(=O)[C@H](Cc2c[nH]c3ccccc23)NC(=O)[C@H](CCCNC(=N)N)NC(=O)[C@@H](Cc2ccccc2)NC(=O)[C@@H](NC(=O)[C@@H](N)Cc2ccc(O)cc2)CC(=O)NC[C@@H](C(=O)N[C@@H](Cc2ccc(O)cc2)C(N)=O)NC(=O)[C@H](Cc2ccccc2)NC1=O` [SEQ ID NO: 7, Tyr-c[Asp-DPhe-Arg-Trp-Asn-Ala-Phe-Dpr]-Tyr] (H-YD[dF]RWNAF[Dap]Y-NH2; lactam 2-9), on mMC3R [1], the “specific binding at mMC3R (displacement of 125I-NDP-MSH)” value (from here on “specific binding at mMC3R”) is reported as at most 25%. At mMC4R [2], the EC50 worked out at 0.45 µM. For the same compound, at mMC4R [2] (agonist EC50 ratio), the “MC4R versus MC3R selective” value was above 200 fold. Moreover, at mMC3R [3], the “pharmacology in words at mMC3R” value is “Slight agonist”.

As to `C[C@@H]1NC(=O)[C@H](CC(N)=O)NC(=O)[C@H](Cc2ccccc2)NC(=O)[C@H](Cc2ccccc2)NC(=O)[C@H](CCCNC(=N)N)NC(=O)[C@H](Cc2c[nH]cn2)NC(=O)[C@@H](NC(=O)[C@@H](N)Cc2ccc(O)cc2)CC(=O)NC[C@@H](C(=O)N[C@@H](Cc2ccc(O)cc2)C(N)=O)NC(=O)[C@H](Cc2ccccc2)NC1=O` [SEQ ID NO: 8] (H-YDHRFFNAF[Dap]Y-NH2; lactam 2-10), at mMC3R [1], the “specific binding at mMC3R” value was “less than 50%”. The “pharmacology in words at mMC3R” value at mMC3R [3] is given as “Slight agonist”. Further, on mMC4R [4], the “specific binding at mMC4R (displacement of 125I-NDP-MSH)” value is listed as “less than 50%”. At mMC1R (compared with SEQ ID NO:3), the “decreased mMC1R agonist potency” value is given as 8 fold.

Regarding `CCCC[C@H](NC(=O)[C@H](CO)NC(=O)[C@H](Cc1ccc(O)cc1)NC(=O)[C@H](CO)NC(C)=O)C(=O)N[C@@H](CCC(=O)O)C(=O)N[C@@H](Cc1c[nH]cn1)C(=O)N[C@@H](C)C(=O)N[C@@H](C)C(=O)N[C@@H](C)C(=O)NCC(=O)N[C@@H](CCCCN)C(=O)N1CCC[C@H]1C(=O)N[C@H](C(N)=O)C(C)C` [SEQ ID NO: 12] (Ac-SYS[Nle]EHAAAGKPV-NH2), on mMC3R [1], the “specific binding at mMC3R” value is recorded as at most 25%. Moreover, the EC50 at mMC4R [2], on mMC3R [3], on mMC5R and at mMC1R was above 100 µM in each case.

For the compound `CCCC[C@H](NC(=O)[C@H](CO)NC(=O)[C@H](Cc1ccc(O)cc1)NC(=O)[C@H](CO)NC(C)=O)C(=O)N[C@@H](CCC(=O)O)C(=O)N[C@@H](Cc1ccccc1)C(=O)N[C@@H](Cc1ccccc1)C(=O)N[C@@H](CCCNC(=N)N)C(=O)NCC(=O)N[C@@H](CCCCN)C(=O)N1CCC[C@H]1C(=O)N[C@H](C(N)=O)C(C)C` [SEQ ID NO: 13] (Ac-SYS[Nle]EFFRGKPV-NH2), the EC50 at mMC4R [2], on mMC3R [3] and at mMC5R was above 100 µM throughout. In addition, the “pharmacology in words at mMC1R” value at mMC1R was “Partial agonist”.

Consider `CCCC[C@H](NC(=O)[C@H](CO)NC(=O)[C@H](Cc1ccc(O)cc1)NC(=O)[C@H](CO)NC(C)=O)C(=O)N[C@@H](CCC(=O)O)C(=O)N[C@@H](Cc1c[nH]cn1)C(=O)N[C@@H](Cc1ccccc1)C(=O)N[C@@H](Cc1ccccc1)C(=O)N[C@@H](CCCNC(=N)N)C(=O)NCC(=O)N[C@@H](CCCCN)C(=O)N1CCC[C@H]1C(=O)N[C@H](C(N)=O)C(C)C` [SEQ ID NO: 14] (Ac-SYS[Nle]EHFFRGKPV-NH2), for which the concentration giving a half-maximal response (EC50) at mMC4R [2] is above 100 µM. The “pharmacology in words at mMC3R” value at mMC3R [3] is “Partial agonist”. For the same compound, on mMC5R, the “pharmacology in words at mMC5R” value is listed as “Partial agonist”. Moreover, the “pharmacology in words at mMC1R” value on mMC1R was “Partial agonist”.

Regarding `CCCC[C@H](NC(=O)[C@H](CO)NC(=O)[C@H](Cc1ccc(O)cc1)NC(=O)[C@H](CO)NC(C)=O)C(=O)N[C@@H](CCC(=O)O)C(=O)N[C@@H](Cc1c[nH]cn1)C(=O)N[C@H](CCCNC(=N)N)C(=O)N[C@@H](Cc1ccccc1)C(=O)N[C@@H](Cc1ccccc1)C(=O)NCC(=O)N[C@@H](CCCCN)C(=O)N1CCC[C@H]1C(=O)N[C@H](C(N)=O)C(C)C` [SEQ ID NO: 16, Ac-Ser-Tyr-Ser-Nle-Glu-His-DArg-Phe-Phe-Gly-Lys-Pro-Val] (Ac-SYS[Nle]EH[dR]FFGKPV-NH2), the EC50 on mMC4R [2] and at mMC3R [3] was above 100 µM each time. The “pharmacology in words at mMC5R” value on mMC5R was “Slight agonist”. Further, the “pharmacology in words at mMC1R” value on mMC1R is given as “Slight agonist”.

Consider `CCCC[C@H](NC(=O)[C@H](CO)NC(=O)[C@H](Cc1ccc(O)cc1)NC(=O)[C@H](CO)NC(C)=O)C(=O)N[C@@H](CCC(=O)O)C(=O)N[C@@H](Cc1c[nH]cn1)C(=O)N[C@@H](CCCNC(=N)N)C(=O)N[C@H](Cc1ccccc1)C(=O)N[C@@H](Cc1ccccc1)C(=O)NCC(=O)N[C@@H](CCCCN)C(=O)N1CCC[C@H]1C(=O)N[C@H](C(N)=O)C(C)C` [SEQ ID NO: 17, Ac-Ser-Tyr-Ser-Nle-Glu-His-Arg-DPhe-Phe-Gly-Lys-Pro-Val] (Ac-SYS[Nle]EHR[dF]FGKPV-NH2), for which the “pharmacology in words at mMC4R” value at mMC4R [2] (slight agonist = some stimulatory response at 100 μM, not enough to determine an EC50) is reported as “Slight agonist”. The “decreased mMC3R agonist potency” value on mMC3R [3] (compared with SEQ ID NO:15) is reported as 13 fold. On mMC4R [4], the “specific binding at mMC4R (displacement of 125I-NDP-MSH)” value is recorded as at most 25%. In addition, at mMC1R (agonist EC50 ratio), the “MC1R versus MC3R selective” value is given as 850 fold and the “MC1R versus MC5R selective” value is on record as 62 fold. Also, on mMC1R (compared with SEQ ID NO:15), the “increase in mMC1R agonist potency” value worked out at 8 fold.

As to `CCCC[C@H](NC(C)=O)C(=O)N[C@H]1CC(=O)NCCCC[C@@H](C(N)=O)NC(=O)[C@H](C)NC(=O)[C@H](C)NC(=O)[C@H](C)NC(=O)[C@H](Cc2c[nH]cn2)NC1=O` [SEQ ID NO: 19, Ac-Nle-c[Asp-His-Ala-Ala-Ala-Lys]] (Ac-[Nle]DHAAAK-NH2; lactam 2-7), the EC50 at mMC4R [2], on mMC3R [3], at mMC5R and on mMC1R was above 100 µM throughout.

For `CCCC[C@H](NC(C)=O)C(=O)N[C@H]1CC(=O)NCCCC[C@@H](C(N)=O)NC(=O)[C@H](Cc2ccccc2)NC(=O)[C@H](Cc2ccccc2)NC(=O)[C@H](CCCNC(=N)N)NC(=O)[C@H](Cc2c[nH]cn2)NC1=O` [SEQ ID NO: 20, Ac-Nle-c[Asp-His-Arg-Phe-Phe-Lys]] (Ac-[Nle]DHRFFK-NH2; lactam 2-7; C-terminus assumed), the EC50 on mMC4R [2], at mMC3R [3] and at mMC5R was above 100 µM in each case. Moreover, the “pharmacology in words at mMC1R” value on mMC1R was “Partial agonist”.

In the case of `CCCC[C@H](NC(C)=O)C(=O)N[C@H]1CC(=O)NCCCC[C@@H](C(N)=O)NC(=O)[C@H](Cc2ccccc2)NC(=O)[C@H](Cc2ccccc2)NC(=O)[C@@H](CCCNC(=N)N)NC(=O)[C@H](Cc2c[nH]cn2)NC1=O` [SEQ ID NO: 21, Ac-Nle-c[Asp-His-DArg-Phe-Phe-Lys]] (Ac-[Nle]DH[dR]FFK-NH2; lactam 2-7), the EC50 at mMC4R [2], at mMC3R [3], on mMC5R and at mMC1R was above 100 µM throughout.
